Source: ChEMBL document CHEMBL1139092, “Challenges in the development of mGluR5 positive allosteric modulators: the discovery of CPPHA” (Bioorg Med Chem Lett, 2007)

Legend:
Type in all cases: cell-based
[1] = biological target: T1, Metabotropic glutamate receptor 5 (Homo sapiens, UniProt P41594); assay: Activity at human mGluR5 expressed in CHO cells assessed as potentiation of glutamate response by FLIPR assay
Target sequence in this assay (P41594 whole entry): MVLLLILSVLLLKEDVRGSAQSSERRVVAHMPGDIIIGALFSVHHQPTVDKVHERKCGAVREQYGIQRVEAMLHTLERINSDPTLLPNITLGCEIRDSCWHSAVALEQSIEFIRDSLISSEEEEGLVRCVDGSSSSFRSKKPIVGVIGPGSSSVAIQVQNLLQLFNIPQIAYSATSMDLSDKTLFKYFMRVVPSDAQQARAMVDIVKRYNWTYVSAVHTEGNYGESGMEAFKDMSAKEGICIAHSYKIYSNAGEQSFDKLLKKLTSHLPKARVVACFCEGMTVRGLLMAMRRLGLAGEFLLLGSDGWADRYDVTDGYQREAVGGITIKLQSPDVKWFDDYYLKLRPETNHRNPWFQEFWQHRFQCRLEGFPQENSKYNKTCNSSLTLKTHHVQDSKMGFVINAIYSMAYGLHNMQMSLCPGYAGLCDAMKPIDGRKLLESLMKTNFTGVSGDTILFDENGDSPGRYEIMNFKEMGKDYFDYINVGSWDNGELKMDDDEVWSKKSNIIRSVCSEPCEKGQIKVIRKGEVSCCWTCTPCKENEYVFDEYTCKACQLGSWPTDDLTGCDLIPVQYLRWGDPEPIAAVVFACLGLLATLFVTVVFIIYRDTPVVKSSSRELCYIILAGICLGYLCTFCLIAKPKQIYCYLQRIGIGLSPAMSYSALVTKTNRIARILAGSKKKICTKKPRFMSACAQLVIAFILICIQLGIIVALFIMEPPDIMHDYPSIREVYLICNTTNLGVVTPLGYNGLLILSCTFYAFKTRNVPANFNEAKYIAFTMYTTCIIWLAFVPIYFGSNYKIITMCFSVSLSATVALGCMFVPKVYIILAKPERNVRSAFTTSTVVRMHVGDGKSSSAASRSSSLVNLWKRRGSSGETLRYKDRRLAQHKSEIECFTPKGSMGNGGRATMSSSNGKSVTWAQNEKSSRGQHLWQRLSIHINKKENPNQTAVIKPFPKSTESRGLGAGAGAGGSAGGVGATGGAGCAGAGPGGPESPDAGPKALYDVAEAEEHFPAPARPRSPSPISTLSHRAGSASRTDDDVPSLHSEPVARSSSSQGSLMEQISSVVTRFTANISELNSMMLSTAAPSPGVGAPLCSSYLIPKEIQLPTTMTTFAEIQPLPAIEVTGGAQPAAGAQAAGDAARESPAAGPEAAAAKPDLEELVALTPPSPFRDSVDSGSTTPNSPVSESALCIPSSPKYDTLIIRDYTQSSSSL

[2] = biological target: T1, Metabotropic glutamate receptor 5; assay: Activity at human mGluR5 expressed in CHO cells assessed as potentiation of glutamate response by FLIPR assay relative to glutamate
Target sequence in this assay (P41594 21-1212 limits assumed): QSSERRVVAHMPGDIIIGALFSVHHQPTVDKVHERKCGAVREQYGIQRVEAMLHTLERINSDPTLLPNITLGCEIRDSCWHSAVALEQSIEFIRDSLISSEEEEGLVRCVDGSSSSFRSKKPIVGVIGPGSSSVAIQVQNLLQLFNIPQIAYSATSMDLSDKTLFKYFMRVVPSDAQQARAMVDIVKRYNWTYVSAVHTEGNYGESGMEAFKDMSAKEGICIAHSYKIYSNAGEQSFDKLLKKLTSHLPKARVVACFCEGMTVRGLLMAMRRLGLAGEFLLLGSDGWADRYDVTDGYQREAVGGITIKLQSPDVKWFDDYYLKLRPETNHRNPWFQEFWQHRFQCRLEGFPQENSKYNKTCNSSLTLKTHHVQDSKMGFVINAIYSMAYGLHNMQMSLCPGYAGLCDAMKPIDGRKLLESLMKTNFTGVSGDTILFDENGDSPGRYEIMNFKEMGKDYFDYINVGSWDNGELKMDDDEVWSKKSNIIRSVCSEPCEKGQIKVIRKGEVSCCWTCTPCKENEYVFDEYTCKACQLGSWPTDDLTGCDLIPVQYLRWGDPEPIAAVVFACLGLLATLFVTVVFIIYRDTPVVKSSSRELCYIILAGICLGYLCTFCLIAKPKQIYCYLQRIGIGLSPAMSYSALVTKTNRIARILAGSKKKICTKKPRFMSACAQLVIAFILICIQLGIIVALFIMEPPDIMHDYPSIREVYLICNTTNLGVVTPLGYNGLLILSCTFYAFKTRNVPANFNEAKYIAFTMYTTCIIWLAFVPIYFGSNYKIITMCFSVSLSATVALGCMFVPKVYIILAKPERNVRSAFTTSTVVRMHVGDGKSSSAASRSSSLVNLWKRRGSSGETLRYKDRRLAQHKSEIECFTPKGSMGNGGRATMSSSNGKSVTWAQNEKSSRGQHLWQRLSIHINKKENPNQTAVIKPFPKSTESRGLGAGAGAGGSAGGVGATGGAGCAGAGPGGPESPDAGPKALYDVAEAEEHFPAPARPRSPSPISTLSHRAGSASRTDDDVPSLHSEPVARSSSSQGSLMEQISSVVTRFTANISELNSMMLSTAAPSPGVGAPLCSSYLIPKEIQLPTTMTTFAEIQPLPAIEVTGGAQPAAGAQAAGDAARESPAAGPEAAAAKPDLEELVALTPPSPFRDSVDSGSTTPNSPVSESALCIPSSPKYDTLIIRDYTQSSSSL

[3] = biological target: Metabotropic glutamate receptor 5 (Rattus norvegicus, UniProt P31424); assay: Activity at rat mGluR5 expressed in CHO cells assessed as potentiation of glutamate response by FLIPR assay
Metabotropic glutamate receptor 5 (Rattus norvegicus, UniProt P31424), sequence (P31424 whole entry): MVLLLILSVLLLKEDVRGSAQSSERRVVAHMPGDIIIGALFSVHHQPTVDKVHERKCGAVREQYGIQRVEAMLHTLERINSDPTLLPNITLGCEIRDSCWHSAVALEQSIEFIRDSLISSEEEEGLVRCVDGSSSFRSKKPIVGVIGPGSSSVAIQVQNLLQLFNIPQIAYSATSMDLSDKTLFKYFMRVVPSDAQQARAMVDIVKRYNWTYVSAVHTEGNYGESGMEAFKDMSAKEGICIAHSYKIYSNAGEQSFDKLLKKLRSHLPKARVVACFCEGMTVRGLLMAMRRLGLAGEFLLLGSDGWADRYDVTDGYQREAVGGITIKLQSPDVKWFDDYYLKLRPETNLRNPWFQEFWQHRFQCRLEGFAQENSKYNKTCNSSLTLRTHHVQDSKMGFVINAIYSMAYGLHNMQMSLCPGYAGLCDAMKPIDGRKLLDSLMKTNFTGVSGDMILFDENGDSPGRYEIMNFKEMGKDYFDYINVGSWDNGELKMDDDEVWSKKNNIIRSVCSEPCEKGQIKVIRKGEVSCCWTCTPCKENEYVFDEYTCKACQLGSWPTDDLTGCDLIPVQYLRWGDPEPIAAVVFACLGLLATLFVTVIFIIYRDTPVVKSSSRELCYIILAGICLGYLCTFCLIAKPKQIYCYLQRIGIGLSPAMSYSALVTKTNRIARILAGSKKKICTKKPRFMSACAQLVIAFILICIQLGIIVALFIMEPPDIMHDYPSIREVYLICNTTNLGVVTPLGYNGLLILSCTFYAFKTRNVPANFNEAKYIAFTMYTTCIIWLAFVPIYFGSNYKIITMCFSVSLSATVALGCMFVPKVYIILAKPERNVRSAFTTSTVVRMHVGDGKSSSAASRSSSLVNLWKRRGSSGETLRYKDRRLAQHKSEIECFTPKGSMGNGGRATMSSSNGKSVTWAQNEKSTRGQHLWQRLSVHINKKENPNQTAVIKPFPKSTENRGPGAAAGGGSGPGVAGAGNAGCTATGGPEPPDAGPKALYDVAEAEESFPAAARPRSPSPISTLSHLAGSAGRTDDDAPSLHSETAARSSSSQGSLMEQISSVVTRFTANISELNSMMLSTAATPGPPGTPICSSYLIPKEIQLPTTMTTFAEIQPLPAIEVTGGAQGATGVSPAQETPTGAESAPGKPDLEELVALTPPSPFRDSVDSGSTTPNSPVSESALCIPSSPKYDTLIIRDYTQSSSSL

`O=C(Nc1ccc(Cl)cc1CN1C(=O)c2ccccc2C1=O)c1ccccc1` gave an EC50 [1] of over 100000 nM, an Activity [2] of 0.6 and an EC50 [3] of over 1000 nM.

For `Cc1ccc2c(c1C)C(=O)N(Cc1cc(Cl)ccc1NC(=O)c1ccccn1)C2=O`, the EC50 [1] was 2200 nM and the Activity [2] was 3.7.

`CCOc1cccc2c1C(=O)N(Cc1cc(Br)ccc1NC(=O)c1ccccn1)C2=O` showed an EC50 [1] of 720 nM and an Activity [2] of 10.7.

In the case of `COc1ccc(NC(=O)c2ccccn2)c(CN2C(=O)c3ccccc3C2=O)c1`, the EC50 [1] is reported as 1400 nM and the Activity [2] is reported as 3.5.

In the case of `O=C(CCc1cc(Cl)ccc1NC(=O)c1ccccn1)c1ccccc1`, the EC50 [1] is reported as 4500 nM.

`O=C(Nc1ccc(Br)cc1CN1C(=O)c2ccccc2C1=O)c1ccccn1` showed an EC50 [1] of 750 nM, an Activity [2] of 7.6 and an EC50 [3] of over 1000 nM.

`O=C(Nc1ccc(Cl)cc1CN1C(=O)c2ccccc2C1=O)c1ncccn1` was tested, and the EC50 [1] was 2100 nM, the Activity [2] was 1.3 and the EC50 [3] was over 1000 nM.

Work on `O=C(Nc1ccc(Cl)cc1CN1C(=O)c2ccccc2C1=O)c1cccnc1` yielded an EC50 [1] of 35000 nM, an Activity [2] of 1.8 and an EC50 [3] of over 1000 nM.

Work on `CCOc1cccc2c1C(=O)N(Cc1cc(Cl)ccc1NC(=O)c1ccccn1)C2=O` yielded an EC50 [1] of 280 nM and an Activity [2] of 4.5.

Compound `O=C(Nc1ccc(F)cc1CN1C(=O)c2ccccc2C1=O)c1ccccn1` has an EC50 [1] of 1500 nM and an Activity [2] of 2.6.

For `O=C(Nc1ccc(Cl)cc1CN1C(=O)c2ccccc2C1=O)c1ccccn1` [listing 1 of 3 here], the EC50 [1] was 250 nM.

With `O=C(Nc1ccccc1CN1C(=O)c2ccccc2C1=O)c1ccccn1` the EC50 [1] was 13900 nM and the Activity [2] was 3.4.

`O=C(Nc1ccc(Cl)cc1CN1C(=O)c2ccccc2C1=O)c1ccccn1` [listing 2 of 3 here] was tested, and the Activity [2] was 6.8.

With `COc1ccccc1C(=O)Nc1ccc(Cl)cc1CN1C(=O)c2ccccc2C1=O` the EC50 [1] was over 100000 nM, the Activity [2] was 0.6 and the EC50 [3] was over 1000 nM.

For `O=C(Nc1ccc(Cl)cc1CN1C(=O)c2ccccc2C1=O)c1ncccc1O`, the EC50 [1] was 260 nM, the Activity [2] was 11.3 and the EC50 [3] was over 1000 nM.

In the case of `CCN(Cc1cc(Cl)ccc1NC(=O)c1ccccn1)C(=O)c1cc(Cl)cc(Cl)c1`, the EC50 [1] is reported as 470 nM and the Activity [2] is reported as 5.9.

For `O=C(Nc1ccc(Cl)cc1CN1C(=O)c2ccccc2C1=O)c1cncs1`, the EC50 [1] was 1900 nM, the Activity [2] was 9.2 and the EC50 [3] was over 1000 nM.

`O=C(Nc1ccc(Br)cc1CN1C(=O)c2ccc(F)cc2C1=O)c1ccccn1` was tested, and the EC50 [1] was 930 nM and the Activity [2] was 11.1.

In the case of `O=C(Nc1ccc(Cl)cc1CN1C(=O)c2ccccc2C1=O)c1ccccc1C(F)(F)F`, the EC50 [1] is reported as 5700 nM, the Activity [2] is reported as 3.5 and the EC50 [3] is reported as over 1000 nM.

Compound `O=C(Nc1ccc(Cl)cc1CN1C(=O)c2ccccc2C1=O)c1ccccn1` [listing 3 of 3 here] has an EC50 ([1]; cho) of 250 nM.

With `O=C(Nc1ccc(Cl)cc1CN1C(=O)c2ccccc2C1=O)c1ccccc1[N+](=O)[O-]` the EC50 [1] was 5700 nM, the Activity [2] was 2.9 and the EC50 [3] was over 1000 nM.

In the case of `O=C(Nc1ccc(Cl)cc1CN1C(=O)c2ccc(F)cc2C1=O)c1ccccn1`, the EC50 [1] is reported as 330 nM and the Activity [2] is reported as 4.6.

With `O=C(Nc1cccc(F)c1CN1C(=O)c2ccccc2C1=O)c1ccccn1` the EC50 [1] was over 100000 nM and the Activity [2] was 0.9.

Work on `COc1ccc2c(c1OC)C(=O)N(Cc1cc(Cl)ccc1NC(=O)c1ccccn1)C2=O` yielded an EC50 [1] of over 100000 nM and an Activity [2] of 0.6.

For `O=C(Nc1ccc(Cl)cc1CN1C(=O)c2ccccc2C1=O)C1CCCCC1`, the EC50 [1] was 1500 nM, the Activity [2] was 4.1 and the EC50 [3] was over 1000 nM.

For `COc1cccc(C(=O)Nc2ccc(Cl)cc2CN2C(=O)c3ccccc3C2=O)c1`, the EC50 [1] was 1500 nM, the Activity [2] was 1.6 and the EC50 [3] was over 1000 nM.

`O=C(Nc1ccc(Cl)cc1CN1C(=O)c2ccccc2C1=O)c1cccnn1` gave an EC50 [1] of over 100000 nM, an Activity [2] of 0.6 and an EC50 [3] of over 1000 nM.

`COc1ccc2c(c1OC)C(=O)N(Cc1cc(Br)ccc1NC(=O)c1ccccn1)C2=O` showed an EC50 [1] of over 100000 nM and an Activity [2] of 0.6.

With `O=C(/C=C/c1cc(Cl)ccc1NC(=O)c1ccccn1)c1ccccc1` the EC50 [1] was 1700 nM and the Activity [2] was 8.

For `O=C(Nc1ccc(Cl)cc1CN1C(=O)c2ccccc2C1=O)c1ccco1`, the EC50 [1] was 2300 nM, the Activity [2] was 6.2 and the EC50 [3] was over 1000 nM.

`O=C(Nc1ccc(Cl)cc1CN1C(=O)c2ccccc2C1=O)c1ccccc1O` showed an Activity [2] of 7.1.

Work on `Cc1ccc2c(c1C)C(=O)N(Cc1cc(Br)ccc1NC(=O)c1ccccn1)C2=O` yielded an EC50 [1] of over 100000 nM and an Activity [2] of 0.6.
